SMILES strings stand for the structures. The source made the active and inactive calls. How the calls were made is not given here.

The target of this test is ATP-sensitive inward rectifier potassium channel 1 (Homo sapiens) (UniProt P48048). The test is described as follows: concentration-response of Kir1.1 channel inhibition – cell-based, thallium flux, HEK293, dose response (AID 2753). Conditions: HEK293 ROMK thallium flux, fluorescence.
Sequence of ATP-sensitive inward rectifier potassium channel 1 (Homo sapiens) (P48048 whole entry, looked up): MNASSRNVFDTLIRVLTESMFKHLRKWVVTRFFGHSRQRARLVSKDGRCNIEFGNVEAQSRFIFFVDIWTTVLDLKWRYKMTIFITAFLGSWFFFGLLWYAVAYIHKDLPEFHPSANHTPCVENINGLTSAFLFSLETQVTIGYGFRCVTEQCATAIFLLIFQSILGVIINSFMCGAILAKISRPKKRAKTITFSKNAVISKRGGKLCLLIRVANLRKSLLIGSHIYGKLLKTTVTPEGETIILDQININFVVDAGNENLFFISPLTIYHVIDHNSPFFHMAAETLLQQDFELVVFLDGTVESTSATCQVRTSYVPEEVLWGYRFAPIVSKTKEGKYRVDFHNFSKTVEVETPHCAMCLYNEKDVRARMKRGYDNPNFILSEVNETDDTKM
Turning to `CSC1=C(C#N)C(=O)NC(c2ccccc2O)S1` (centres undefined), the IC50 is 7.63 µM. For the compound `COC(=O)N/N=C/c1ccc(-c2cc(Cl)ccc2Cl)o1`, the IC50 was 5.79 µM. For the compound `COC(=O)/C=C1\SC(=NC(=O)c2cccc(Cl)c2)NC1=O`, the IC50 result is “inactive”. `CC(C(=O)c1ccc(-c2ccccc2)cc1)[n+]1cccc(NC(=O)c2ccccc2)c1` (centres undefined): the IC50 was 27.9 µM. Under `O=C(c1ccc([N+](=O)[O-])cc1)N(Cc1ccc(Br)cc1)N1C(=O)CCCC1=O` stands 0.32 µM; under `COC(=O)/C=C1/SC(=NC(=O)c2ccc(F)cc2)NC1=O`, 19.1 µM; under `COc1cc(/C=C2\C(=N)N3N=CSC3=NC2=O)cc(Br)c1OC(=O)c1ccco1`, 4.53 µM. For `N#CC1=C(N)N(c2ccccc2)C(c2cccc([N+](=O)[O-])c2)C1(C#N)C#N` (centres undefined), the IC50 was 11.5 µM. Take `Cc1cc(Cl)c(S(=O)(=O)Nc2ccc3c(c2)OCCO3)cc1OCC(=O)NC1CCCCC1`: the half-inhibitory concentration (IC50) is 3.55 µM.

On to `CCc1cccc(NC(=O)CSC2=NS(=O)(=O)c3ccccc32)c1`, for which the IC50 entry is “inactive”. For `Cc1ccccc1N1C(=S)NC2c3ccccc3OC1(C)C2C(=O)N(C)C` (centres undefined), the IC50 was 0.0115 µM. As to `O=C1CC(N2CCN(Cc3ccc4c(c3)OCO4)CC2)C(=O)N1c1cccc2ccccc12` (centres undefined), the IC50 result was “inactive”. For the compound `CC(=O)c1ccc(N/N=C(/C(N)=O)C2=NC(C)(C)Cc3ccccc32)cc1`, the IC50 is 26.9 µM.

Take `Cn1c(=O)c([N+](=O)[O-])c(Cl)c2ccccc21`: the IC50 was 5.56 µM.

With `CCOC(=O)N1CCN(S(=O)(=O)c2ccc3c(c2)SCC(=O)N3)CC1`, the IC50 result was “inactive”. As for `O=C(/C(=C/c1ccc(Cl)cc1)c1nc2ccccc2[nH]1)c1cccs1`, the IC50 is 4.56 µM.

On to `CCN(CC)S(=O)(=O)c1ccc(OC)c(NC(=O)CSc2cc(C)ccc2C)c1`, for which the concentration for half-maximal inhibition (IC50) is 12.8 µM. Turning to `N#Cc1nc(N2CCCC2)nc(N2CCCC2)n1`, the IC50 is 41.7 µM. Under `CC(NC(=O)/C(C#N)=C/c1cccs1)c1ccccc1` (centres undefined) stands 69.5 µM; under `CCCn1c(=S)[nH]c2cc(C(=O)N3CCCC(C(=O)OCC)C3)ccc2c1=O` (centres undefined), “inactive”; under `O=C(/C=C/c1cn(CC(O)CN2CCCCC2)c2ccccc12)c1ccccc1` (centres undefined), “inactive”.

With `O=C1c2cccc3c([N+](=O)[O-])ccc(c23)C(=O)N1CC1CCCO1` (centres undefined), the IC50 result is “inactive”. Turning to `O=C(Cn1nc(Cl)nc1Cl)c1cc2ccccc2oc1=O`, the IC50 is 18 µM.

For the compound `N#CC(C#N)=C1C=CC=CN1/C(=C\c1ccccc1Cl)C(=O)c1ccccc1`, the IC50 was 6.03 µM. Next, `CS(=O)(=O)n1nc(OC(=O)c2cc(Br)ccc2Cl)cc1N`: “inactive”; `COc1ccccc1-n1c(SCC(=O)N2CCc3ccccc32)nc2c(c1=O)SCC2`: 6.43 µM; `Cc1ccccc1-n1sc2cc(F)ccc2c1=O`: “inactive”.

For `COCc1cc(C)nc(SCC[N+](C)(C)CC(=O)Nc2cccc(C(F)(F)F)c2)c1C#N`, the IC50 was 9.27 µM.

As to `CC(C)C(c1nnnn1Cc1ccccc1)N1CCN(Cc2ccc3c(c2)OCO3)CC1` (centres undefined), the IC50 was 5.83 µM. Under `O=C1CCCCCN1Sc1ccccc1` stands 4.49 µM; under `N#C/C(=C/c1cc(Br)cs1)C(=O)NCC1CCCO1` (centres undefined), “inactive”; under `Cn1nc(C(F)(F)F)c(C#N)c1N1CCN(c2ccccc2)CC1`, 15.2 µM. Turning to `CCCNC(=O)c1nnsc1S(=O)c1ccc(Cl)cc1` (centres undefined), the IC50 is 2.8 µM. With `COc1cc(/C=C(\C#N)C(N)=O)ccc1OS(=O)(=O)c1ccc(C)cc1`, the half-maximal inhibitory concentration (IC50) was 31 µM. Under `COc1ccc(C2(O)CCN(CCCCOc3ccccc3)CC2)cc1` stands 10.8 µM. Turning to `CC(CCc1ccccc1)NC(=O)CN1CCN(c2ccccc2)CC1` (centres undefined), the IC50 result is “inactive”. Under `CCC(CC)C(=O)Nc1c2cnn(-c3ccccc3)c2nc(=O)n1-c1ccccc1` stands 14 µM. Take `CC1CCCCC1NC(=O)/C(C#N)=C/c1ccccc1F` (centres undefined): the IC50 is 4.75 µM. With `Cc1cc(C)n2nc(/C(C#N)=C/c3ccccn3)c(C#N)c2n1`, the IC50 was 88.3 µM. With `CCOC(=O)C(=Cc1ccc(-n2cncn2)cc1)C(=O)OCC`, the half-maximal inhibitory concentration (IC50) is 95.8 µM. On to `CN(CCCC(=O)Nc1ccncc1)S(=O)(=O)c1ccc(Cl)cc1`, for which the IC50 entry was “inactive”. For the compound `COc1ccc(NC(=O)/C(C#N)=C/c2ccc(Sc3nncn3C)c([N+](=O)[O-])c2)cc1`, the IC50 was 4.29 µM.

As to `CCOc1cc(C)c(Cl)cc1S(=O)(=O)NC1CC(C)(C)NC(C)(C)C1`, the half-maximal inhibitory concentration (IC50) is 82.8 µM. Under `Cc1ccc(C(C)C)c(OCC(=O)NN=C(CCl)CCl)c1` stands “inactive”. Turning to `N#CC1=C(N)N(c2ccccc2)C(c2ccccc2)C1(C#N)C#N` (centres undefined), the IC50 is 32.2 µM. On to `O=C(O)c1ccc(Cn2cnc3scc(-c4ccccc4)c3c2=O)cc1`, for which the IC50 is 9.85 µM.

On to `N#C/C(=C\c1cccc([N+](=O)[O-])c1)C(=O)NCC1CCCO1` (centres undefined), for which the IC50 entry was “inactive”.

In the case of `CC(=O)/C(=C/c1ccccc1)C(=O)Nc1ccccc1C`, the IC50 was 23 µM. For the compound `CN(C)c1cc(O)c(C(=S)Nc2ccccc2)c(N(C)C)c1`, the IC50 was 75.5 µM. `COC(=O)Cn1cc(/C=C/[N+](=O)[O-])c2ccccc21`: the IC50 was 63 µM. Under `O=C(Cn1nc(CNc2ccc(Cl)cc2)[n+]2c1CCCCC2)c1ccc(Cl)cc1` stands 5.52 µM; under `O=C(N/N=C/c1cn(-c2cccs2)nc1-c1ccccc1)c1ccc(O)cc1`, 4.99 µM; under `O=C(NCc1ccccc1)N1CCC(n2cnc3cc(F)ccc32)CC1`, “inactive”. In the case of `O=C(Nc1ccc2oc(=O)ccc2c1)c1cc([N+](=O)[O-])ccc1N1CCOCC1`, the IC50 was 3.41 µM. In the case of `CCOC(=O)c1ccc(-n2c(O)c(/C=N/NC(=O)C3COc4ccccc4O3)c3ccccc3c2=O)cc1` (centres undefined), the IC50 entry is “inactive”. Under `O=[N+]([O-])c1ccc(S(=O)(=O)N2CCN(Cc3c[nH]c4ccccc34)CC2)cc1` stands “inactive”. Turning to `Cc1ccc2[nH]cc(C(=O)CCl)c2c1`, the half-inhibitory concentration (IC50) is 4.14 µM. As to `CC1CN(c2ccc([N+](=O)[O-])c(NCCOc3ccccc3)c2)CCN1` (centres undefined), the IC50 result was “inactive”. Consider `COc1ccc(NC(=O)/C(Cl)=C(/Cl)S(=O)Cc2ccccc2)cn1` (centres undefined), for which the IC50 was 1.21 µM. Consider `CCCCC1(CCCC)C(=O)NC(=Nc2cccc(C)c2)NC1=O`, for which the IC50 is 3.01 µM. Under `N#C/C(=C\C1=C(N2CCOCC2)C(=C\c2ccccc2)/CC1)C(=O)Nc1ccccc1F` stands 14.5 µM; under `CCOCCCNC(=O)/C(C#N)=C/c1ccc(C(=O)OC)cc1`, “inactive”; under `CC1CCCCC1NC(=O)CN1C(=O)CSc2cc(S(=O)(=O)N3CCCCCC3)ccc21` (centres undefined), 55.3 µM. With `Cc1ccc(Oc2c(C(N)=O)cc([N+](=O)[O-])cc2[N+](=O)[O-])cc1`, the IC50 is 51 µM.

As to `CCCNc1nc(Cl)nc(NC(C)(C)C)n1`, the half-inhibitory concentration (IC50) is 2.78 µM. For `Cc1c(N2C(=O)/C(=C\C3CC=CCC3)SC2=S)c(=O)n(-c2ccccc2)n1C` (centres undefined), the 50% inhibitory concentration (IC50) is 2.66 µM. Consider `O=C(NCc1cccnc1)/C(=C/c1ccc(-c2cccc(Cl)c2)o1)S(=O)(=O)c1ccccc1`, for which the IC50 result was “inactive”. For the compound `O=C(CCl)N(Cc1cccc([N+](=O)[O-])c1)c1cccc(Cl)c1`, the IC50 was 9.65 µM.

For `CC1CCN(C(=O)CSCC(=O)Nc2nc(-c3cccs3)cs2)CC1`, the IC50 result is “inactive”.

What is called IC50 is the concentration at which inhibition is half-maximal.
